Results as given in paper PMC4840416, “Constructing and Validating High-Performance MIEC-SVM Models in Virtual Screening for Kinases: A Better Way for Actives Discovery” (Scientific Reports, 2016).

Molecular target: T1, recombinant human ALK protein (Homo sapiens, UniProt Q9UM73)
T1 construct: purchased Life Technologies Inc. PV3867
Assay: LanthaScreen TR-FRET in vitro inhibitory activity assay of ALK
Format: biochemical
Conditions: for Averaged Enzymatic Inhibition @ 2ug/ml (%) / inhibition at 2 µg/mL: compound at 2ug/ml; for IC50: TR-FRET, 5 μM ATP, 1 hour at room temperature; for inhibition at 2 µg/mL: read-out: Averaged Enzymatic Inhibition @ 2ug/ml (%)
Procedure: All reagents and anhydrous solvents were obtained from commercial sources and used as received. The positive control inhibitors of ALK, crizotinib and ceritinib, were purchased from Bangshunda Technology and Selleck Chemicals, respectively. The compounds were dissolved in 100% dimethyl sulfoxide (DMSO) as a 10 mM stock solution. The final DMSO concentration in each reaction was less than 1%. Purified recombinant human ALK protein (Catalog number: PV3867) as well as reagents for TR-FRET assay, including Lantha Screen™ Tb-PY20 (Catalog number: PV3552), Fluorescein-Poly GT (Catalog number: PV3610), ATP (Catalog number: PV3227), Kinase Quench Buffer (Catalog number: P2832), Kinase Buffer (Catalog number: PV3189), and Antibody Dilution Buffer (Catalog number: PV3574), were all obtained from Life Technologies Inc.
Lantha Screen™ kinase assay based on TR-FRET technology was used to measure the inhibitory activity of the screened compounds. All the assays were carried out in 384-well plate format. The 4 × test compounds were firstly prepared before the enzyme reaction starts. The 4 × recombinant human ALK protein and 2 × Substrate/ATP mixture were separately prepared in 50 mM HEPES (pH = 7.5), 0.01% BRIJ-35, 10 mM MgCl2, 4 mM MnCl2, 1 mM EGTA, and 2 mM DTT. The final 10 μL kinase reaction consists of 5 μL 1 × Substrate/ATP mixture (0.2 μM substrate and 5 μM ATP), 2.5 μL ALK (5 ng/ml ALK protein), and 2.5 μL 1 × test compounds with desired concentration. The assay plate was shook on a plate shaker for 30 seconds to mix the reactions thoroughly. After 1 hour kinase reaction incubation at room temperature (20 ~ 25 °C), 10 μL of pre-prepared 20 mM EDTA and 4 nM Tb-labeled antibody solution was then added to terminate the kinase reactions and to initiate antibody binding, and the assay plate was incubated for another 1 hour at room temperature. Then, the assay plate was placed into a fluorescence plate reader (BioTek Synergy™ 4) to measure both fluoresce in and terbium emission signals (excitation: 340 nm; emission: 520 and 495 nm, respectively) with 100 μs delay time and 200 μs integration time. To determine the IC50 values, the resulted inhibitory activity calculated from TR-FRET emission ratio (i.e. fluoresce in emission intensity/terbium emission intensity) was plotted against the concentration of inhibitor, and the data was fitted to a dose-response curve with a variable slop.

T1 sequence (Q9UM73 1058-1620 limits assumed): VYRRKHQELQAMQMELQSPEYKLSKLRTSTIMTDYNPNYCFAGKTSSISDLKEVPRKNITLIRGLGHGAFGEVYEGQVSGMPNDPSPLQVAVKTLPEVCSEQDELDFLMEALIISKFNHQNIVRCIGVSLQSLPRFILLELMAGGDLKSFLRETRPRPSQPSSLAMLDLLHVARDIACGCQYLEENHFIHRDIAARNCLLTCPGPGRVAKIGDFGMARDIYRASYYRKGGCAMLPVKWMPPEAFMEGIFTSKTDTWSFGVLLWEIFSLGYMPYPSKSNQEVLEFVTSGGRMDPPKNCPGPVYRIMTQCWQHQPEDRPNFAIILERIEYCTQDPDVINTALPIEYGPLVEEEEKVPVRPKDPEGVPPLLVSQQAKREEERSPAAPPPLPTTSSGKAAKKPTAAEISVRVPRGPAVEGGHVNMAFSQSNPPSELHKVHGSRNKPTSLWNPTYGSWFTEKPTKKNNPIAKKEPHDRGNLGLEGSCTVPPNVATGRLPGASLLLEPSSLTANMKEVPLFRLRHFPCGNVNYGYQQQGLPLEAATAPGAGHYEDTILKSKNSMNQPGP

Row | SMILES | Averaged Enzymatic Inhibition @ 2ug/ml (%) | IC50 [nM] | inhibition at 2 µg/mL [%]
1 | c1ccc(-c2cc(-c3c(-c4ccccc4)cn4c3sc3ccccc34)c(-c3ccccc3)nn2)cc1 [AQ-344/43100304] | -14.115 |  | 
2 | COc1ccc(Cl)cc1C(=O)NCCNc1ccc(-n2nc(C)cc2C)nn1 [AQ-432/43400100] | -6.36 |  | 
3 | CC(NS(=O)(=O)c1cccc(Cl)c1)C(=O)Nc1cccc(-c2nc3ccccc3s2)c1 (stereo not drawn) [AQ-750/42209760] | 13.425 |  | 
4 | O=c1oc2ccccc2cc1-c1nnc(NC2CCCCC2)s1 [AQ-968/42007731] | -5.865 |  | 
5 | Cc1cccn2c(=O)c3cc(C(=O)NC(C)c4ccccc4)c(=N)n(CCc4ccccc4)c3nc12 (stereo not drawn) [AS-871/41399397] | -8.995 |  | 
6 | OC(CON=C1c2ccccc2-c2ccccc21)CN1CCN(c2ccc(Cl)cc2)CC1 (stereo not drawn) [AS-871/42941985] | -10.47 |  | 
7 | O=C(c1cc(C(=O)N2CCN(c3ccccc3)CC2)cc(C(=O)N2CCN(c3ccccc3)CC2)c1)N1CCN(c2ccccc2)CC1 [Compound A1] |  | 572 | 80.6
8 | O=C(CN1C(=O)C(=NNC(=O)c2ccc(NC(=O)c3ccccc3)cc2)c2ccccc21)Nc1ccccc1 [Compound A2] |  | 832 | 50.4
9 | Cc1ccc(C)c(N2CCN(C3CC(=O)N(c4ccc(N5C(=O)CC(N6CCN(c7cc(C)ccc7C)CC6)C5=O)cc4)C3=O)CC2)c1 (stereo not drawn) [Compound A3] |  | 1540 | 65.8
10 | Cc1ccc(N2C(=O)C(=Cc3ccc(C)s3)C(=O)N(c3ccc(C)cc3C)C2=S)c(C)c1 [Compound M3] |  | 515 | 91.5
11 | COc1cc(/C=C2/C(=N)N3N=C(c4ccccc4Cl)SC3=NC2=O)ccc1O [Compound M4] |  | 863 | 70.5
12 | CN1C(=O)c2cccc3c(S(=O)(=O)Nc4nc[nH]n4)ccc1c23 [Compound M6] |  | 4450 | 53.3
13 | CCN1C(=O)c2cccc3c(S(=O)(=O)Nc4nc5ccccc5s4)ccc1c23 [Compound M7] |  | 6050 | 50.8
14 | Cc1cccc2cc3c(nc12)N(C(=O)c1ccc(S(=O)(=O)N2CCCCC2)cc1)CC3 [Compound M8] | 48.88 | 11500 | 
15 | Cc1c(C=C2C(=O)N(C)C(=S)N(C)C2=O)c2ccccc2n1Cc1ccccc1 [Compound M9] | 37.24 | 18200 | 
